{"source": "patent US7638554B2", "about": "“Flavanoids as chemotherapeutic, chemopreventive, and antiangiogenic agents” (SRI International, priority 2002, dated 2009)", "key": {"[1]": {"test_system": "colon cancer cell line KM12", "assay": "Growth inhibition, sulforhodamine-based protein determination, KM12", "format": "cell-based", "settings": "Homo sapiens, KM12, 144 h; continuous exposure six days", "procedure": "(§1) The novel compound SR 13179 was assayed for its ability to inhibit growth in several cancer cell lines. The cell lines studied included breast cancer cell line MCF-7 (ER+); prostate cancer cell lines LNCaP, PC3, and DU145; lung cancer cell line A427; ovarian cancer cell lines IGROV1, OVCAR-3, OVCAR-4, OVCAR-5, OVCAR-8, and SK-OV-3; and colon cancer cell lines COLO 205, HCC-2998, HCT-116, HCT-15, HT29, KM12, AND SW-620.\n(§2) The growth assays for the breast cancer cell lines were conducted according to the method of Example 16. For the other cell lines, each assay was conducted with continuous exposure to the test compound at four log concentrations for six days, using a sulforhodamine-based protein determination to measure growth inhibition."}, "[2]": {"test_system": "MDA-MB-231 breast cancer cells", "assay": "Boyden-chamber Matrigel invasion/migration assay, MDA-MB-231", "format": "cell-based, human", "procedure": "Cell Culture. MCF-10CA1a cells were cultured in Dulbecco's Modified Eagle Medium (DMEM) supplemented with 5% bovine serum, 2 mM glutamine and 1 mM non-essential amino acids. MDA-MB231 cells were grown in DMEM supplemented with 5% bovine serum. Cells were routinely maintained in a 5% CO2 incubator at 37° C.\nGeneral Procedure for Invasion Assay. MCF 10-CA1a or MDA-MB-231 breast cancer cells were treated with 1 or 5 μM of the compound being tested for 8 h. Cells were removed by trypsinizing and tested for their invasiveness by Boyden-chamber invasion assay. In the in vitro invasion/migration assays, a standard Matrigel-based assay, according to the manufacturer's (Becton-Dickinson) protocol, was used. Rehydrated Matrigel and control inserts were added to Falcon TC companion plates containing human fibronectin (30 μg/ml) as chemoattractant. Cellular suspensions (2×10^4 cells/0.5 ml) were added to individual wells of 24-well chambers (containing either control or Matrigel inserts), and the plates incubated (37° C., 5% CO2) in the presence of the compound being tested or vehicle for an additional 16-18 h. Non-invading or non-migrating cells were removed by scraping the top surfaces of the Matrigel and control inserts, respectively. The invading (or migrating) cells (on the bottom surface) were fixed (3.7% formaldehyde) and stained with Accustain (Sigma). The percent invasion was calculated as mean number of invading cells/the mean number of cells migrating through a control membrane×100.\nThe in vitro invasion through Matrigel was studied for two human breast cancer lines: MCF-10CA1a, a highly metastatic ER^+ line and MDA-MB-231, an ER^− line. […] At this concentration, SR13179 inhibited invasion of MDA-MB-231 by about 30% (and by 70% at 5 μM). To rule out a cytotoxic effect in the inhibition of invasion, a concurrent cytotoxicity assay was carried out and the number of viable cells was determined by MTT assay. There was less than 5% decrease in MDA-MB-231 cell viability at 5 μM concentration of SR13179 at 22 h. In the same experiment, a motility experiment was conducted, showing that cell migration was inhibited by about 20%."}, "[3]": {"test_system": "prostate cancer cell line PC-3", "assay": "Growth inhibition, sulforhodamine-based protein determination, PC-3", "format": "cell-based", "settings": "144 h; continuous exposure six days", "procedure": "as §1, §2"}, "[4]": {"test_system": "MCF-7 human breast carcinoma cells", "assay": "Cell cycle analysis in MCF-7 cells", "format": "cell-based", "settings": "1 μM, 24 h"}, "[5]": {"test_system": "colon cancer cell line COLO 205", "assay": "Growth inhibition, sulforhodamine-based protein determination, COLO 205", "format": "cell-based", "settings": "Homo sapiens, COLO 205, 144 h; continuous exposure six days", "procedure": "as §1, §2"}, "TIMP-2": {"test_system": "TIMP-2", "assay": "Western blotting of TIMP-2 protein expression, MCF-10-CA1a cells", "format": "cell-based, human", "excerpt": "(§3) Western Blotting. Proteins were separated by gel electrophoresis using 4-12% pre-cast SDS-polyacrylamide gels (Invitrogen, Carlsbad, Calif.) and then electrophoretically transferred onto Hybond™-P membrane (Amersham Biosciences, Piscataway, N.J.). Blots were probed with specific antibodies (Santa Cruz Biotechnology, Inc). The ECL Plus Western Blotting Detection System of Amersham Biosciences (Piscataway, N.J.) and the procedure recommended by the manufacturer was used for the detection of antigens. Protein bands were quantified by analyzing the images obtained using an Alphaimager™ S-3400 (Alpha Innotech Corp., San Leandro, Calif.).\nThe effects of SR 13179 on the protein expression of TIMP-1, TIMP-2, and membrane-type 1 MMP (MT1-MMP) were studied. SR13179 induced the protein expression of TIMP-2 in a dose- and time-dependent manner. MCF-10-CA1a cells were treated with SR 13179 at 1, 3, or 5 μM concentrations for 48 h, or, alternatively, with […] SR 13179 for 8, 24, or 48 h. Cells were lysed and subjected to Western blotting."}, "[6]": {"test_system": "ovarian cancer cell line OVCAR-8", "assay": "Growth inhibition, sulforhodamine-based protein determination, OVCAR-8", "format": "cell-based", "settings": "Homo sapiens, OVCAR-8, 144 h; continuous exposure six days", "procedure": "as §1, §2"}, "[7]": {"test_system": "colon cancer cell line HCC-2998", "assay": "Growth inhibition, sulforhodamine-based protein determination, HCC-2998", "format": "cell-based", "settings": "Homo sapiens, HCC 2998, 144 h; continuous exposure six days", "procedure": "as §1, §2"}, "MMP-2": {"test_system": "MMP-2", "assay": "Western blotting of cell-associated MMP-2 protein, MCF-10-CA1a cells", "format": "cell-based, human", "settings": "1, 3, or 5 μM, 48 h", "excerpt": "as §3\nThe effect of SR 13179 on cell-associated MMP-2 and MMP-9 protein levels was studied. MCF-10-CA1a cells were treated with SR 13179 at 1, 3, or 5 μM concentrations for 48 h. Untreated cells were used as control. Proteins were separated by SDS-Polyacrylamide gel electrophoresis and electrophoretically transformed onto Hybond™ P membrane (Amerhsam Biosciences). Blots were probed with specific antibodies (Santa Cruz Biotechnology Inc.)."}, "[8]": {"test_system": "colon cancer cell line HT29", "assay": "Growth inhibition, sulforhodamine-based protein determination, HT29", "format": "cell-based", "settings": "Homo sapiens, HT-29, 144 h; continuous exposure six days", "procedure": "as §1, §2"}, "[9]": {"test_system": "SKOV-3 human ovarian cancer xenografts", "assay": "SKOV-3 adriamycin- and cisplatin-resistant human ovarian cancer xenografts in nude mice", "format": "in vivo, female BALB/c mice", "procedure": "The in vivo antitumor activity of SR 13179 against the highly aggressive adriamycin and cisplatin-resistant human ovarian cancer cell line SKOV-3 was evaluated in nude mice xenografts. The experiment was carried out as follows: Female BALB/c mice were inoculated subcutaneously with the human ovarian cancer SKOV-3 cells on both flanks. SR 13179 was administered to the mice on the same day as tumor cell inoculation, via two routes of administration, orally and intraperitoneally, in three doses of 10 mg/kg, 30 mg/kg and 100 mg/kg, once a day as a suspension in 0.5% hydroxypropylcellulose. Body weights and tumor volumes were measured twice a week. Results. […] The body weights of the treated mice were unaffected at all doses studied."}}, "data": [{"smiles": "COc1cc(C2CC(O)c3ccc4ccccc4c3O2)cc(OC)c1OC", "note": "(stereo not shown) [SR 13179, 2-(3,4,5-trimethoxyphenyl)-3,4-dihydro-2H-benzo[h]chromen-4-ol]", "values": [{"measurement": "IC50", "setting": "[1]", "value": 168, "unit": "nM"}, {"measurement": "Invasion (%)", "setting": "[2]; 1 μM", "value": 60, "unit": "%"}, {"measurement": "Invasion (%)", "setting": "[2]; 5 μM", "value": 25, "unit": "%"}, {"measurement": "inhibition at 1 µM", "setting": "[2]; Homo sapiens, MDA-MB-231, 1 μM", "value": "~30", "unit": "%"}, {"measurement": "inhibition at 5 µM", "setting": "[2]; Homo sapiens, MDA-MB-231, 5 μM", "value": 70, "unit": "%"}, {"measurement": "inhibition of cell migration (motility experiment)", "setting": "[2]; same experiment as the cytotoxicity assay", "value": "about 20%"}, {"measurement": "IC50", "setting": "[3]", "value": 289, "unit": "nM"}, {"measurement": "hypodiploid (sub G1) fraction compared with untreated control", "setting": "[4]", "value": "nearly three-fold increase"}, {"measurement": "IC50", "setting": "[5]", "value": 266, "unit": "nM"}, {"measurement": "Level of TIMP-2 Protein", "setting": "TIMP-2; 1 μM, 48 h", "value": 6.8}, {"measurement": "Level of TIMP-2 Protein", "setting": "TIMP-2; 3 μM, 48 h", "value": 14.6}, {"measurement": "Level of TIMP-2 Protein", "setting": "TIMP-2; 5 μM, 48 h", "value": 16.2}, {"measurement": "Level of TIMP-2 Protein", "setting": "TIMP-2; 8 h, 5 mM SR 13179", "value": 7.9}, {"measurement": "Level of TIMP-2 Protein", "setting": "TIMP-2; 24 h, 5 mM SR 13179", "value": 14.5}, {"measurement": "Level of TIMP-2 Protein", "setting": "TIMP-2; 48 h, 5 mM SR 13179", "value": 15.9}, {"measurement": "IC50", "setting": "[6]", "value": 364, "unit": "nM"}, {"measurement": "IC50", "setting": "[7]", "value": 278, "unit": "nM"}, {"measurement": "cell-associated MMP-2 protein levels", "setting": "MMP-2", "value": "does not affect"}, {"measurement": "IC50", "setting": "[8]", "value": 430, "unit": "nM"}, {"measurement": "tumors smaller than untreated control", "setting": "[9]; Day 10, oral and i.p., 10, 30 and 100 mg/kg once a day", "value": "about 50%"}, {"measurement": "body weights of the treated mice", "setting": "[9]; all doses studied (10, 30, 100 mg/kg; oral and i.p.)", "value": "unaffected"}, {"measurement": "tumor growth compared to untreated control", "setting": "[9]; duration of the four-week study, oral and i.p.", "value": "significantly inhibited"}]}]}
